In patent US20230048888A1, “USE OF TRIAZOLOTRIAZINE DERIVATIVE IN TREATMENT OF DISEASES” (ZHEJIANG VIMGREEN PHARMACEUTICALS, LTD., priority 2019, published 2023):

Key:
[1] = Pharmacokinetics of test compounds in SD rats (15.2; IV and PO, mixed administration); type: in vivo; conditions: male, Sprague-Dawley, rat, plasma, SD rats, PO
Description: Administration dose: the compounds in this group were all administered in a mixed way, with 6 compounds in each group for mixed PO administration.
Blood was collected based on the blood collection points in the test protocol. 50 μL of plasma sample was added with acetonitrile (containing 5 ng/mL Verapamil) being 3 folds of the volume thereof; the resulting mixture was vortexed for 30 s, and then centrifuged for 15 min at 15,000 rpm at 4° C.; and 10μ L of supernatant was taken for LC-MS/MS analysis.
For each compound, 3 male SD rats weighing 200-220 g were fasted for one night before dosage, but had access to water.
Orally intragastric administration: before intragastric administration and at 0.083 h, 0.25 h, 0.5 h, 1 h, 2 h, 4 h, 8 h and 24 h after administration (for Compounds 40, 27, 40 and 47), or at 0.25 h, 0.5 h, 1 h, 4 h, 6 h and 8 h after administration (for Compounds 44 and 48), orbital blood was collected and put in a test tube that was treated with heparin sodium, and after centrifugation, the supernatant plasma was collected for LC-MS/MS analysis.
The plasma samples were processed according to the method for “sample treatment” and then analyzed by LC-MS/MS, accompanied with the standard curve and quality control samples. At a time point when the upper limit of quantification was exceeded, the samples were diluted 10 or 100 folds for analysis. All measured data were collected and processed by Analyst 1.6.3 software, and the data were calculated and processed with Microsoft Excel. With DAS 3.2.8 software, the pharmacokinetic parameters were calculated by the statistical moment method. The pharmacokinetic parameters mainly include Tmax, t1/2, Cmax, AUC(0-t), etc.

[2] = as above; type: in vivo; conditions: PO, 3 mg/kg
adenosine receptors A2A = biological target: T1, adenosine receptors A2A (Homo sapiens, UniProt P29274); assay: TR-FRET-based cAMP accumulation assay in hADORA2A-HEK293 cells; type: cell-based; conditions: NECA at EC80, hADORA2A-HEK293, read-out: A2AR activity (IC50)
T1 construct: expressed in transfected cells; host or cells: HEK293 (hADORA2A-HEK293)
Description: The inhibitory effects of the test compounds on the adenosine receptors A2A were evaluated by TR-FRET-based cAMP accumulation assay. The method included, in HEK293 cells (hADORA2A-HEK293) expressing A2AR, the production of cAMP stimulated by NECA and the inhibitory effect of A2A receptor antagonists on cAMP. All cells were cultured in a complete medium at 37° C. in the presence of 5% CO2. After being digested with trypsin, the cells were collected by centrifugation at 200 g for 5 minutes. The cells were resuspended in a fresh complete medium, and then the cell viability was counted by a trypan blue exclusion method. […] The cells were diluted with Hank's buffer solution containing HEPES (5 mM), BSA stabilizer (0.1%) and Rolipram (10 μM), then added to a 384-well white non-transparent plate (cells/well, 10 μl/well), and incubated with the test compound at an appropriate concentration (11 concentrations) for 20 minutes at room temperature. Then, the A2A receptor agonist NECA (final concentration=EC80, which was determined in the same experiment performed earlier) was added to the sample, and the sample was incubated again at 37° C. for 30 minutes.
An inhibition rate (%) was calculated according to the following formula, and an IC50 value was calculated from a concentration-inhibition (%) curve after log conversion.
A curve corresponding to the dose was fitted by using XLfit software and the IC50 was determined.

[3] = Pharmacokinetics of Compound 40 and benzene sulfonate thereof in ICR mice, PO; conditions: mouse, in vivo, PO 100 mg/kg (based on free base), 40% Hp-β-CD
[4] = tested on: haloperidol-induced stiffness; assay: Haloperidol-induced Parkinson's disease stiffness model in CD-1 mice (rearing and bar tests); type: in vivo; conditions: Experiment I
Excerpt: Parkinson's disease (PD) is a common class of degenerative disease of the nervous system with the main pathological changes including the loss of substantia nigra dopaminergic neurons and the decrease of dopamine transmitter content, leading to tremor at rest, muscle stiffness, […], postural reflex disorders and other clinical symptoms. Haloperidol, a dopamine D2 receptor blocker, can block the dopamine D2 receptor in the striatum, leading to mouse dystonic postures, namely, stiffness and hypokinesia. This model is a recognized animal model of Parkinson's syndrome. The ameliorative effect of a test substance on the stiffness symptom of Parkinson's disease induced by haloperidol in CD-1 mice was evaluated. 57 SPF-grade male CD-1 mice (4 weeks old at the time of purchase and 8 weeks old at the time of experiment) with the weight of about 40 g were randomly divided into 5 groups, namely, a vehicle group (n=11), a group of 1 mg/kg benzene sulfonate of Compound 40 (n=11), a group of 3 mg/kg benzene sulfonate of Compound 40 (n=12), a group of 10 mg/kg benzene sulfonate of Compound 40 (n=12), and a group of 30 mg/kg benzene sulfonate of Compound 40 (n=11). 1 mg/kg haloperidol was injected subcutaneously at an injection volume of 10 ml/kg. 30 minutes after the injection, Compound 40 at each dose was intragastrically infused at a volume of 10 ml/kg. At the 1st hour and the 4th hour after the administration was completed, the rearing and bar tests were performed respectively, and the number of standings and on-bar time of the mice were counted to evaluate the ameliorative effect of Compound 40 on the stiffness symptom of haloperidol-induced Parkinson's disease in CD-1 mice. […] Firstly, the acetate of Compound 22 at each dose was intragastrically infused at a volume of 10 ml/kg. After 30 min, 1 mg/kg haloperidol was injected subcutaneously at an injection volume of 10 ml/kg. At the 1st hour and the 4th hour after the administration was completed, the rearing and bar tests were performed respectively, and the number of standings and on-bar time of the mice were counted to evaluate the ameliorative effect of the acetates of Compound 22 on the stiffness symptom of haloperidol-induced Parkinson's disease in CD-1 mice. […] Firstly, Compound 27 at each dose was intragastrically infused at a volume of 10 ml/kg. After 30 min, 1 mg/kg haloperidol was injected subcutaneously at an injection volume of 10 ml/kg. At the 1st hour and the 4th hour after the administration was completed, the rearing and bar tests were performed respectively, and the number of standings and on-bar time of the mice were counted to evaluate the ameliorative effect of Compound 27 on the stiffness symptom of haloperidol-induced Parkinson's disease in CD-1 mice. The mice were subcutaneously injected with haloperidol at abdomen at a dose of 1 mg/kg, with the concentration of a working solution of 0.1 mg/ml and an injection volume of 10 ml/kg. At the 1st hour and the 4th hour after drug intervention, the mice were put into a white transparent plastic bucket with a diameter of 20 cm and a height of 21 cm. The mice were allowed to acclimate in the bucket for 5 min before starting video recording. The spontaneous activity behaviors of the mice within 10 minutes were recorded, whereby the number of standings was counted. The more the standings, the more frequent the spontaneous exploration activities of the mice, and the lower the degree of stiffness. At the time points of 1st and 4th hours after the rearing test was completed, bar test was carried out. The mice were placed on a long wooden bar with a diameter of […] and a height of 6 cm. The mice were let to hold the wooden bar with forelimbs, only with the buttocks or hind limbs on the ground. The timing was stopped when the hind limbs left the bench top or the fore limbs left the wooden bar, and the on-bar time of the mice was recorded. Each mouse was tested 3 times, and the maximum on-bar time and the average on-bar time were counted. […]

[5] = tested on: haloperidol-induced stiffness; assay: Haloperidol-induced Wistar rat stiffness model (bar test, rearing); type: in vivo, Wistar rats; conditions: for Number of standings: 1st hour after haloperidol
Description: Time of bar test: The stiffness of the rats was tested by the bar test. That is, a wooden bar with a diameter of 8 mm was fixed between 2 iron stands and was 10 cm from the bench top; and then, the rat's tail was grabbed to make its front paws rest on the wooden bar and its hind paws or buttocks on the ground. Generally, the rat needs to acclimate several times when it was tested for the first time. The time for the forelimbs to drop from the bar or the time for the hind limbs to leave the bench top were tested, each rat was tested 3 times. Number of standings: the number of standings of the rat was measured by the rearing test. That is, the rat was placed in a 27*52 cm cage and acclimate for 5 minutes, and the spontaneous activity behavior, i.e., the number of standings, of the rat within 10 minutes was recorded. When the rat's hind limbs stood with two forelimbs raised over the shoulders and touched the ground, one standing is counted, and the one forelimb lift was excluded. Generally, the rat would raise its forelimbs to touch the cage wall. If the rat raised its forelimbs over the shoulders several times without falling to the ground, only one standing was counted. The time of bar test was taken as a measurement index, including the average time and the maximum time. Long time indicates severe stiffness, short time indicates mild stiffness. After drug treatment, the shorter the time of bar test, the better the effect of the drug on relieving stiffness. The number of standings was counted by the rearing test. The more the number of standings, the more frequent the spontaneous exploration activity of the rat, and the lower the stiffness. The statistical analysis between groups was performed on the data by using Prism GraphPad 7.0 independent sample T test, and P<0.05 was considered as a significant difference.

[6] = male, Sprague-Dawley, rat, plasma
[7] = 10 mg/kg intragastric, 1st hour
[8] = 10 mg/kg intragastric, 4th hour
[9] = 30 mg/kg intragastric, 1st hour
[10] = 30 mg/kg intragastric, 4th hour

T1 sequence (P29274 whole entry): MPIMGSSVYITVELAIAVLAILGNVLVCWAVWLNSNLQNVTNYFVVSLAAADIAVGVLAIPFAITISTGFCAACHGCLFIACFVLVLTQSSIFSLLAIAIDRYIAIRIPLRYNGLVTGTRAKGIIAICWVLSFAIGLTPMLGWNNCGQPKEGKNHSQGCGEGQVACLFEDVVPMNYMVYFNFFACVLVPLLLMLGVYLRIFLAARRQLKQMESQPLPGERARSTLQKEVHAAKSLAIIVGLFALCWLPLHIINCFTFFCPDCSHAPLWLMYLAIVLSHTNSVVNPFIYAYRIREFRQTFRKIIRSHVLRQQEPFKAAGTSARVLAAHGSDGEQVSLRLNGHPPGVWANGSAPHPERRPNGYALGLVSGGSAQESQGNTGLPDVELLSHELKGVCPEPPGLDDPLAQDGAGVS

COCCn1nnc(-c2ccc(CCNc3nc(N)n4nc(-c5ccco5)nc4n3)cc2)n1 [Compound 47, N5-(4-(2-(2-methoxyethyl)-2H-tetrazol-5-yl)phenethyl)-2-(furan-2-yl)-[1,2,4]triazolo[1,5-a][1,3,5]triazine-5,7-diamine]
AUC(0-t) ([1]; 2 mg/kg, mixed administration (6 compounds per group)): 779 ng·h/mL | half-life ([1]; 3 mg/kg, read-out: T½ (converted)): 135 min | Cl_F_pred [2]: 1389.74 mL/h/kg | AUC(0-t) [2, 6]: 1500 ng·h/mL | Cmax [2, 6]: 538 ng/mL | IC50 (adenosine receptors A2A): 13.9 nM

Cn1nnc(-c2ccc(CCNc3nc(N)n4nc(-c5ccco5)nc4n3)cc2)n1.O=S(=O)(O)c1ccccc1 [Benzene sulfonate of Compound 40, N^5-(4-(2-methyl-2H-tetrazol-5-yl)phenethyl)-2-(furan-2-yl)-[1,2,4]triazolo[1,5-a][1,3,5]triazine-5,7-diamine benzene sulfonate]
AUC(0-t) [3]: 138 µg·h/mL | Cmax [3]: 36000 ng/mL | Tmax [3]: 30 min | AUC(0-inf) ([3]; read-out: AUCINF—pred): 138 µg·h/mL | half-life ([3]; read-out: T½ (converted)): 137 min | Average on-bar time ([4]; 1 mg/kg intragastric, 1st hour): 237.67 ± 40.20 s | Maximum on-bar time ([4]; 1 mg/kg intragastric, 1st hour): 356.43 ± 55.79 s | Number of standings ([4]; 1 mg/kg intragastric, 1st hour): 17.00 ± 1.99 | Average on-bar time ([4]; 1 mg/kg intragastric, 4th hour): 241.14 ± 31.32 s | Maximum on-bar time ([4]; 1 mg/kg intragastric, 4th hour): 361.29 ± 53.92 s | Number of standings ([4]; 1 mg/kg intragastric, 4th hour): 8.71 ± 2.68 | Average on-bar time ([4]; 3 mg/kg intragastric, 1st hour): 120.05 ± 35.31 s | Maximum on-bar time ([4]; 3 mg/kg intragastric, 1st hour): 184.00 ± 50.55 s | Number of standings ([4]; 3 mg/kg intragastric, 1st hour): 17.00 ± 2.99 | Average on-bar time ([4]; 3 mg/kg intragastric, 4th hour): 171.76 ± 52.86 s | Maximum on-bar time ([4]; 3 mg/kg intragastric, 4th hour): 225.14 ± 51.96 s | Number of standings ([4]; 3 mg/kg intragastric, 4th hour): 14.86 ± 1.89 | Average on-bar time [4, 7]: 36.10 ± 5.88 s | Maximum on-bar time [4, 7]: 57.00 ± 11.21 s | Number of standings [4, 7]: 34.90 ± 4.75 | Average on-bar time [4, 8]: 66.07 ± 13.96 s | Maximum on-bar time [4, 8]: 96.10 ± 23.06 s | Number of standings [4, 8]: 17.80 ± 4.32 | Average on-bar time [4, 9]: 26.50 ± 5.88 s | Maximum on-bar time [4, 9]: 34.88 ± 6.68 s | Number of standings [4, 9]: 43.25 ± 3.89 | Average on-bar time [4, 10]: 20.00 ± 1.28 s | Maximum on-bar time [4, 10]: 24.13 ± 1.67 s | Number of standings [4, 10]: 25.13 ± 3.25 | Average on-bar time ([5]; 3 mg/kg intragastric): 212.67 ± 51.43 s | Maximum on-bar time ([5]; 3 mg/kg intragastric): 266.63 ± 50.73 s | Number of standings ([5]; 3 mg/kg intragastric): 1.75 ± 0.60 | Average on-bar time ([5]; 10 mg/kg intragastric): 41.67 ± 16.50 s | Maximum on-bar time ([5]; 10 mg/kg intragastric): 69.67 ± 28.71 s | Number of standings ([5]; 10 mg/kg intragastric): 7.89 ± 0.98 | Average on-bar time ([5]; 30 mg/kg intragastric): 12.29 ± 1.41 s | Maximum on-bar time ([5]; 30 mg/kg intragastric): 18.00 ± 2.21 s | Number of standings ([5]; 30 mg/kg intragastric): 13.00 ± 0.96
